According to patent EP4813463A2, “TYK2 INHIBITORS AND COMPOSITIONS AND METHODS THEREOF” (Lynk Pharmaceuticals Co. Ltd., priority 2023, dated 2024):

Key:
[1] = molecular target: T1, TYK2-JH2 domain (Homo sapiens, UniProt P29597); test: Binding activity test for JH2 domain of TYK2 (Tb-antibody/tracer FRET); conditions: for IC50: JH2 domain enzyme, 60 min at 25°C, then 4°C overnight, read-out: TYK2 JH2 Binding IC50; for JAK1/TYK2 selectivity: ratio of JAK1 JH2 to TYK2 JH2 binding IC50
T1 construct: JAK1-JH2 domain or TYK2-JH2 domain enzyme in assay buffer
T1 sequence (P29597 589-875 limits assumed): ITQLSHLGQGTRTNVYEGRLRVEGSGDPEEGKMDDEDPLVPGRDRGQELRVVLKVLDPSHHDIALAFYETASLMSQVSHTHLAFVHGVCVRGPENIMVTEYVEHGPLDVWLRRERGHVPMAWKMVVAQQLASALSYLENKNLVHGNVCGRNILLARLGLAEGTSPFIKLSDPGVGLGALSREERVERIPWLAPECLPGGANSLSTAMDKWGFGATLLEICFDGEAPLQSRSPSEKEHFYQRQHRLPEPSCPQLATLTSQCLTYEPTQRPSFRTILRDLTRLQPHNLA
How it was run: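 Competitive TR-FRET binding: compounds dispensed as an 11-point 3-fold dilution series, then Tb-labelled antibody and tracer added to the JH2 protein system. Incubated at 25°C, then overnight at 4°C; FRET signal read on Envision and IC50 (nM) derived.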

[2] = molecular target: T2, JAK1-JH2 domain (Homo sapiens, UniProt P23458); test: Binding activity test for JH2 domain of JAK1 (Tb-antibody/tracer FRET); conditions: JH2 domain enzyme; 60 min at 25°C, then 4°C overnight; read-out: JAK1 JH2 Binding IC50
T2 construct: JAK1-JH2 domain or TYK2-JH2 domain enzyme in assay buffer
T2 sequence (P23458 583-855 limits assumed): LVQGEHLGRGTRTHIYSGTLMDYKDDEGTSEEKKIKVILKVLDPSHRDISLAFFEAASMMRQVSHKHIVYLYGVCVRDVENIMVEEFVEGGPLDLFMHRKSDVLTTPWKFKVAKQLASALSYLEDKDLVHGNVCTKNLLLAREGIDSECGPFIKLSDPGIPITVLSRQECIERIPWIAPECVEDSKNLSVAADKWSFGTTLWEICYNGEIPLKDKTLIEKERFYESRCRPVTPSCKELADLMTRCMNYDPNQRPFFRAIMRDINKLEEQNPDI
Description: Binding Activity test for JH2 domain of JAK1 and TYK2 […] Add 8μL/well in echo source plate, echo will add 75nL/well with 3-fold serial dilution for 11 points in assay plate. 75nL DMSO for high control and low control. […] For low control, add 5μL/well assay buffer. And then spin down at 1000rpm and centrifuge for 30 seconds. After enzyme system prepared, add 5μL of Tb-antibody solution into each well of assay plate. Spin down at 1000 rpm and centrifuge for 30sec. After Tb-antibody added, also add 5μL of tracer into the assay plate. Spin down at 1000rpm and centrifuge for 30sec. Incubate for […] at 25°C firstly and then continue to incubate the plate at 4°C overnight. Read by envision in FRET mode. The Luminescence value was recorded by a multi-label reader Envision (PerkinElmer). […] Table 2. IC50 on JH2 domain activity (nM)

[3] = system: Ba/F3-FL-TYK2-P760L cells; test: Anti-proliferative assay in engineered Ba/F3 cells (Cell-Titer Glo, 72 h); assay type: cell-based; conditions: Mus musculus, BaF3, 72 h, 72 h compound treatment, concentration that causes 50% growth inhibition, read-out: Baf3-FL-T2P760L
How it was run: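 Ba/F3 cells carrying Tel-dimerization/JAK kinase fusion, IL-3-independent, in RPMI-1640 + 10% FBS; 9-point 3-fold dilutions from 20 µM (0.1% DMSO) added after 24 h, 72 h at 37 °C. Viability by Cell-Titer Glo ATP luminescence; % inhibition versus DMSO cells, blank-corrected, giving IC50.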

Structure (SMILES): [2H]C([2H])([2H])NC(=O)c1cnc(NC(=O)C2CC2)cc1Nc1cnn2cccc(OC)c12 [Example 44, 6-(Cyclopropanecarboxamido)-4-((4-methoxypyrazolo[1,5-a]pyridin-3-yl)amino)-N-(methyl-d3)nicotinamide]
- IC50 [1]: 2.8 nM
- JAK1/TYK2 selectivity [1]: 21.5
- IC50 [2]: 60.2 nM
- IC50 [3]: 356 nM

Structure (SMILES): COC(=O)c1cnc(NC(=O)C2CC2)cc1Nc1nn(C)c2ccc(C(OC)C(F)(F)F)c(OC)c12 (centres unmarked) [Example 45, Methyl 6-(cyclopropanecarboxamido)-4-((4-methoxy-1-methyl-5-(2,2,2-trifluoro-1-methoxyethyl)-1H-indazol-3-yl)amino)nicotinate]
- IC50 [1]: 0.209 nM
- JAK1/TYK2 selectivity [1]: 307.51
- IC50 [2]: 64.3 nM
- IC50 [3]: 8.61 nM

Structure (SMILES): COC(=O)c1cnc(NC(=O)C2CC2)cc1Nc1nn(C)c2ccc([C@@H](OC)C(F)(F)F)c(OC)c12 [Example 45A, Methyl (R)-6-(cyclopropanecarboxamido)-4-((4-methoxy-1-methyl-5-(2,2,2-trifluoro-1-methoxyethyl)-1H-indazol-3-yl)amino)nicotinate]
- IC50 [1]: 0.826 nM
- JAK1/TYK2 selectivity [1]: >361.38
- IC50 [2]: > 298 nM
- IC50 [3]: 110 nM

Structure (SMILES): [2H]C([2H])([2H])NC(=O)c1cnc(NC(=O)C2CC2)cc1Nc1nn(C)c2ccc(C(OC)C(F)(F)F)c(OC)c12 (centres unmarked) [Example 46, 6-(Cyclopropanecarboxamido)-4-((4-methoxy-1-methyl-5-(2,2,2-trifluoro-1-methoxyethyl)-1H-indazol-3-yl)amino)-N-(methyl-d3)nicotinamide]
- IC50 [1]: 0.113 nM
- JAK1/TYK2 selectivity [1]: 60.31
- IC50 [2]: 6.81 nM
- IC50 [3]: 0.618 nM

Structure (SMILES): [2H]C([2H])([2H])O[C@@H](c1ccn2ncc(Nc3cc(NC(=O)C4CC4)ncc3C(=O)OC)c2c1OC)C(F)(F)F [Example 47, Methyl (S)-6-(cyclopropanecarboxamido)-4-((4-methoxy-5-(2,2,2-trifluoro-1-(methoxy-d3)ethyl)pyrazolo[1,5-a]pyridin-3-yl)amino)nicotinate]
- IC50 [1]: 0.221 nM
- JAK1/TYK2 selectivity [1]: 210.20
- IC50 [2]: 46.5 nM
- IC50 [3]: 70.6 nM

Structure (SMILES): COC(=O)c1cnc(NC(=O)C2CC2)cc1Nc1nn(C)c2ccc([C@@H](O)C(F)(F)F)c(OC)c12 [Example 48B, Methyl (R)-6-(cyclopropanecarboxamido)-4-((4-methoxy-1-methyl-5-(2,2,2-trifluoro-1-hydroxyethyl)-1H-indazol-3-yl)amino)nicotinate]
- IC50 [1]: 1.68 nM
- JAK1/TYK2 selectivity [1]: 51.13
- IC50 [2]: 85.9 nM
- IC50 [3]: 162 nM

Structure (SMILES): [2H]C([2H])([2H])O[C@H](c1ccc2c(c(Nc3cc(NC(=O)C4CC4)ncc3C(=O)OC)nn2C)c1OC)C(F)(F)F [Example 50A, Methyl (R)-6-(cyclopropanecarboxamido)-4-((4-methoxy-1-methyl-5-(2,2,2-trifluoro-1-(methoxy-d3)ethyl)-1H-indazol-3-yl)amino)nicotinate]
- IC50 [1]: 1.04 nM
- JAK1/TYK2 selectivity [1]: >287.30
- IC50 [2]: > 298 nM
- IC50 [3]: 131 nM

Structure (SMILES): [2H]C([2H])([2H])NC(=O)c1nnc(NC(=O)C2CC2)cc1Nc1nn(C)c2ccc([C@@H](OC)C(F)(F)F)c(OC)c12 [Example 51A, (R)-6-(cyclopropanecarboxamido)-4-((4-methoxy-1-methyl-5-(2,2,2-trifluoro-1-methoxyethyl)-1H-indazol-3-yl)amino)-N-(methyl-d3)pyridazine-3-carboxamide]
- IC50 [1]: 0.154 nM
- JAK1/TYK2 selectivity [1]: 40.84
- IC50 [2]: 6.29 nM
- IC50 [3]: 12.3 nM

Structure (SMILES): [2H]C([2H])([2H])n1nc(Nc2cc(NC(=O)C3CC3)ncc2C(=O)OC)c2c(OC)c([C@H](OC)C(F)(F)F)ccc21 [Example 52A, Methyl (S)-6-(cyclopropanecarboxamido)-4-((4-methoxy-1-(methyl-d3)-5-(2,2,2-trifluoro-1-methoxyethyl)-1H-indazol-3-yl)amino)nicotinate]
- IC50 [1]: 0.082 nM
- JAK1/TYK2 selectivity [1]: 501.71
- IC50 [2]: 41.1 nM
- IC50 [3]: 3.56 nM

Structure (SMILES): [2H]C([2H])([2H])n1nc(Nc2cc(NC(=O)C3CC3)ncc2C(=O)OC)c2c(OC)c([C@@H](OC)C(F)(F)F)ccc21 [Example 52B, Methyl (R)-6-(cyclopropanecarboxamido)-4-((4-methoxy-1-(methyl-d3)-5-(2,2,2-trifluoro-1-methoxyethyl)-1H-indazol-3-yl)amino)nicotinate]
- IC50 [1]: 0.616 nM
- JAK1/TYK2 selectivity [1]: >484.60
- IC50 [2]: > 298 nM
- IC50 [3]: 119 nM

Structure (SMILES): [2H]C([2H])([2H])NC(=O)c1cnc(NC(=O)C2CC2)cc1Nc1nn(C)c2ccc([C@@H](OC([2H])([2H])[2H])C(F)(F)F)c(OC)c12 [Example 55B, (R)-6-(cyclopropanecarboxamido)-4-((4-methoxy-1-methyl-5-(2,2,2-trifluoro-1-(methoxy-d3)ethyl)-1H-indazol-3-yl)amino)-N-(methyl-d3)nicotinamide]
- IC50 [1]: 0.08 nM
- JAK1/TYK2 selectivity [1]: 153.54
- IC50 [2]: 12.3 nM
- IC50 [3]: 16.2 nM

Structure (SMILES): COC(=O)c1cnc(NC(=O)C2CC2)nc1Nc1cccc(-c2ncn(C)n2)c1OC [Example 56, Methyl 2-(cyclopropanecarboxamido)-4-((2-methoxy-3-(1-methyl-1H-1,2,4-triazol-3-yl)phenyl)amino)pyrimidine-5-carboxylate]
- IC50 [1]: 0.967 nM
- JAK1/TYK2 selectivity [1]: 54.42
- IC50 [2]: 52.6 nM
- IC50 [3]: 148 nM

Structure (SMILES): CCOC(=O)c1cnc(NC(=O)C2CC2)nc1Nc1cccc(-c2ncn(C)n2)c1OC [Example 57, Ethyl 2-(cyclopropanecarboxamido)-4-((2-methoxy-3-(1-methyl-1H-1,2,4-triazol-3-yl)phenyl)amino)pyrimidine-5-carboxylate]
- IC50 [1]: 7.33 nM
- JAK1/TYK2 selectivity [1]: >40.75
- IC50 [2]: > 298 nM
- IC50 [3]: 719 nM

Structure (SMILES): COC(=O)c1cnc(NC(=O)C2CC2)cc1Nc1cccc(-c2ncn(C)n2)c1OC [Example 58, Methyl 6-(cyclopropanecarboxamido)-4-((2-methoxy-3-(1-methyl-1H-1,2,4-triazol-3-yl)phenyl)amino)nicotinate]
- IC50 [1]: 0.304 nM
- JAK1/TYK2 selectivity [1]: 39.30
- IC50 [2]: 11.9 nM
- IC50 [3]: 32.4 nM

Structure (SMILES): [2H]C([2H])([2H])OC(=O)c1cnc(NC(=O)C2CC2)cc1Nc1ncn2ncc(CC)c2c1OC [Example 59, Methyl-d3 6-(cyclopropanecarboxamido)-4-((3-ethyl-4-methoxypyrazolo[1,5-c]pyrimidin-5-yl)amino)nicotinate]
- IC50 [1]: 0.834 nM
- JAK1/TYK2 selectivity [1]: 52.94
- IC50 [2]: 44.1 nM
- IC50 [3]: 208 nM

Structure (SMILES): COC(=O)c1cnc(NC(=O)C2CC2)cc1Nc1cccc(-c2ccn(C)n2)c1OC [Example 60, Methyl 6-(cyclopropanecarboxamido)-4-((2-methoxy-3-(1-methyl-1H-pyrazol-3-yl)phenyl)amino)nicotinate]
- IC50 [1]: 0.546 nM
- JAK1/TYK2 selectivity [1]: 32.87
- IC50 [2]: 17.9 nM
- IC50 [3]: 94.4 nM

Structure (SMILES): COC(=O)c1cnc(NC(=O)C2CC2)cc1Nc1nccc(-c2cnn(C)n2)c1OC [Example 62, Methyl 6-(cyclopropanecarboxamido)-4-((3-methoxy-4-(2-methyl-2H-1,2,3-triazol-4-yl)pyridin-2-yl)amino)nicotinate]
- IC50 [1]: 0.98 nM
- JAK1/TYK2 selectivity [1]: 156.97
- IC50 [2]: 154 nM
- IC50 [3]: > 1000 nM

Structure (SMILES): [2H]C([2H])([2H])CC(=O)c1cnc(NC(=O)C2CC2)cc1Nc1nc2ccc(N3CC(OC)C3)cn2n1 [Example 64, N-[4-[[6-(3-methoxyazetidin-1-yl)-[1,2,4]triazolo[1,5-a]pyridin-2-yl]amino]-5-(3,3,3-trideuteriopropanoyl)-2-pyridyl]cyclopropanecarboxamide]
- IC50 [1]: 0.141 nM
- JAK1/TYK2 selectivity [1]: 246
- IC50 [2]: 34.7 nM
- IC50 [3]: 13 nM

Structure (SMILES): COc1c([C@H](OC)C(F)(F)F)ccc2c1c(Nc1cc(NC(=O)C3CC3)ncc1C(=O)O)nn2C [Example 77, (S)-6-(Cyclopropanecarboxamido)-4-((4-methoxy-1-methyl-5-(2,2,2-trifluoro-1-methoxyethyl)-1H-indazol-3-yl)amino)nicotinic acid]
- IC50 [1]: 0.08 nM
- JAK1/TYK2 selectivity [1]: 2307.96
- IC50 [2]: 185 nM
- IC50 [3]: > 1000 nM

Structure (SMILES): [2H]C([2H])([2H])OC(=O)c1cnc(NC(=O)C2CC2)cc1Nc1cnn2ccc([C@H](OC)C(F)(F)F)c(OC)c12 [Example 79, Methyl-d3 (S)-6-(cyclopropanecarboxamido)-4-((4-methoxy-5-(2,2,2-trifluoro-1-methoxyethyl)pyrazolo[1,5-a]pyridin-3-yl)amino)nicotinate]
- IC50 [1]: 0.28 nM
- JAK1/TYK2 selectivity [1]: 150.32
- IC50 [2]: 42.7 nM
- IC50 [3]: 109 nM
